Laboratory results reported in PubChem BioAssay AID179 (DTP/NCI, 2004).
Calls of active or inactive are those of the source.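 How the source made its calls: active means compounds giving half or more protection of infected cells from virus-caused growth loss, again on retest; inactive means the rest.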

Tested on: CEM cells HIV-1 protection, formazan growth assay
Assay: NCI AIDS Antiviral Assay
Conditions: for IC50: measured here: growth of uninfected CEM cells
In short: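 Protection of CEM cells against HIV-1 was scored from cell growth (soluble formazan) across five concentrations, with parallel uninfected cells. Lack of protection may reflect toxicity.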

Compound	EC50 [µM]	IC50 [µM]	outcome
COc1cc2c(c(Cl)c1OC)CCN(C)CC2c1ccccc1 (stereo unspecified)	> 200	70.8	
Cc1nc2nnnn2c2c1C(=O)Nc1ccccc1N2	> 200	83.2	
COc1ccc2c(c1)[n+](=O)c(C(=O)C/C(=N/NC(=O)c1ccccc1O)C(=O)Nc1ccc(Cl)c(C(F)(F)F)c1)c(C)n2[O-]	> 1.2	> 1.2	
Cc1cn(C2OC(CO)C(CC(N)=O)C2O)c(=O)[nH]c1=O (stereo unspecified)	> 200	> 200	
CC1(C)Cc2c(C#N)c(N)c3c(c2CO1)C(=O)OC3=O	> 19.1	> 19.1	
O=C1CC(NC(=O)C(F)(F)F)c2c(Br)sc(N3CCC(c4ccccc4)CC3)c21 (stereo unspecified)	> 200	145	
N#CC(C#N)=CSc1ccccc1			inactive
O=C(/C=C/c1ccc(O)c(O)c1)NCCOC(=O)/C=C/c1ccc(O)c(O)c1	> 200	8.51	
CCCCc1ccc(Nc2ncc3ncn(COCCO)c3n2)cc1	> 200	51.3	
COc1ccc(CC2Cc3ccccc3CCN2)cc1OC (stereo unspecified)			inactive
COC1(CCO)CC=CCC1(CCO)OC (stereo unspecified)	> 200	> 200	
O=C1C(c2ccccc2)=[N+]([O-])c2cc([N+](=O)[O-])c(/C(Cl)=C/c3ccccc3)cc21			inactive
CC(=O)O[C@]1(C(C)=O)CC[C@H]2[C@@H]3C=C(Cl)C4=CC(=O)[C@@H]5C[C@@H]5[C@]4(C)[C@H]3CC[C@@]21C	> 200	> 200	
Clc1ccc(CN2COc3c(ccc4ccccc34)C2)cc1Cl	> 200	31.6	
O=C(c1nc2ccccc2[nH]c1=O)C(O)c1ccccc1 (stereo unspecified)	> 468	151	
CCOC(=O)c1csc(-c2nc(CCNC(=O)c3ccccc3)sc2Cl)n1	> 85.1	44.7	
O=C1CSC(c2ccc(Cl)cc2)N1c1ccc(-c2ccc(-n3c(-c4ccccc4)nc4ccccc4c3=O)cc2)cc1 (stereo unspecified)	> 200	47.9	
CCOC(=O)/C(C#N)=C1/c2ccccc2C(=O)C1(Cl)C(N)=O (stereo unspecified)	> 200	28.8	
COC(=O)c1ccc(NCc2cc(O)ccc2O)cc1O	> 200	10.5	
COC(=O)C1=C(C(=O)OC)C2OC1C1C2C2(C)C(C)=C(C)C1(C)S2=O (stereo unspecified)	> 200	2.82	
O=c1c2ccccc2nc(N/N=C/c2ccccc2O)n1-c1ccccc1	> 200	1.48	
OCc1cccnc1	> 200	> 200	

Compound	EC50 [µM]	IC50 [µM]	outcome
NC(=O)c1cccc([C@@H]2O[C@H](CO)[C@@H](O)[C@H]2O)c1	> 977	5.37	
COS(=O)c1cc(Cl)cc(Cl)c1OC(=O)CSSCC(=O)Oc1c(Cl)cc(Cl)cc1S(=O)OC (stereo unspecified)			inactive
CSC(=S)Nc1cc(C)ccn1	> 200	155	
O=C(NCCO)c1c(CO)n([O-])c2ccccc2[n+]1=O	> 646	214	
O=C1CC2C3CC4CC(C3)CC2(C4)O1 (stereo unspecified)	> 200	> 200	
Cc1ccc2c(c1)sc1nnc(C)n12			inactive
CC1(C)COC(c2cccc3c2C(=O)c2cccc(Cl)c2-3)=N1	> 83.2	79.4	
CCOCC(=O)N(C)c1cccc2c3c(n(C)c12)CCCCC3			inactive
CCCCCCCCOCC(CO)OCCCCCCCC (stereo unspecified)	> 251	132	
Cc1ccc(S(=O)(=O)O/N=C2\CCC\C2=C/c2ccccc2)cc1			inactive
CC(C)(C)C1=CC(=O)C(Cl)(C(C)(C)C)C(Cl)C1=O (stereo unspecified)	> 20	1.15	
Cc1cccc2c1CC(Cc1ccccc1C(=O)O)C2=O (stereo unspecified)	> 200	> 200	
COc1ccc(C(OCC2OC3(COC(c4ccccc4)(c4ccc(OC)cc4)c4ccc(OC)cc4)C(Oc4nc(=O)ccn43)C2O)(c2ccccc2)c2ccc(OC)cc2)cc1 (stereo unspecified)	> 100	> 100	
CC(=O)Nc1c(C)cc2c(nc3n2CCC3OC(C)=O)c1[N+](=O)[O-] (stereo unspecified)	> 200	> 200	
Cc1ccc(S(=O)(=O)Nn2c(-c3ccccc3)c(C#N)c(-c3ccc([N+](=O)[O-])cc3)c(C#N)c2=O)cc1	> 200	56.2	
COc1ccc(/C=C2\N=C(N3CCCC(CO)C3)NC2=O)cc1 (stereo unspecified)	> 200	> 200	
NC1=NS(=O)(=O)Nc2nc(-c3ccc([N+](=O)[O-])cc3)[nH]c21	> 200	> 200	
Cc1cn(C(C)OCCO)c(=O)[nH]c1=O (stereo unspecified)	> 200	> 200	
CCCc1c(C(=O)OCC)[nH]c(-c2ccc(-c3[nH]c(C(=O)OCC)c(CCC)c3C(=O)OCC)s2)c1C(=O)OCC	> 4.68	> 4.68	
OC(COc1ccc2ccccc2c1)COc1ccc2ccccc2c1	> 200	138	
CC(=O)OCc1c(O)c2c([nH]c1=O)CCc1ccccc1-2	> 25.1	> 25.1	
CC(=O)OCC(OC(C)=O)C(OC(C)=O)C(OC(C)=O)C(/C=N\Nc1nc2ccccc2c(=O)[nH]1)OC(C)=O (stereo unspecified)	> 200	> 200	
